Data: patent US9737525B2, “Small molecule activators of NRF2 pathway” (The General Hospital Corporation, priority 2013, dated 2017)

Assays:
[1] = system: NRF2-target proteins NQO1 and GCLM; experiment: NQO1 and GCLM proteins in wild type mouse cortical neurons (immunoblotting); type: cell-based; details: wild type mouse cortical neurons (6 DIV), 24 hr
Protocol: (§1) To assess protein levels, cell extracts were prepared from cells washed with PBS and lysed with buffer containing 2% SDS, Complete EDTA-free Protease Inhibitor Cocktail (Roche) and 1 mM phenylmethylsulfonyl fluoride. To prepare brain extracts for analysis, frozen mouse cortical tissues were homogenized in PBS containing protease inhibitors with an Kontes Pellet Pestle (Kimble/Kontes). They were later sonicated and lysed overnight at 4° C. in 2× volume of lysis buffer containing 2% SDS and protease inhibitors. Protein concentrations in ST14A cell extracts and homogenized cortical tissues were evaluated using a BCA analysis kit and normalized. Samples were prepared in a SDS buffer containing DTT and separated on bis-acrylamide protein gels via electrophoresis and transferred onto a 0.2 μm PVDF membrane). Membranes were probed for NQO1 (Sigma N5288, 1:1,000), GCLM, (Abcam ab126704, 1:800), SIRT2 (Sigma S8447, 1:2,500), histone H3 (Cell Signaling 4499, 1:2,000), acetylated H3 (K56) (Millipore 04-1135, 1:500), TNFα (Abcam ab1793, 1:1,500), GADPH (Millipore MAB374, 1:10,000), actin (Sigma A2066, 1:1250), α-tubulin (Sigma T6074, 1:20,000), and acetylated α-tubulin (Sigma T6793, 1:2,500) overnight in 5% milk in PBST at 4° C. on a rocker. Membranes were thrice washed in PBST for 15 min on a shaker and incubated in either an anti-rabbit-HRP (Bio-Rad 170-5046, 1:10,000) or anti-mouse-HRP (Sigma A3682, 1:4,000) secondary solution as appropriate in 3% milk in PBST for 1 hr at room temperature on a rocker. After four washes of 15 min in PBST on a shaker, blots were visualized using SuperSignal West Pico Chemiluminescent Substrate (Pierce 34080) or SuperSignal West Dura Extended Duration Substrate (Thermo 34075) and exposed on Scientific Imaging Film (Kodak 864 6770).
Dose-response induction of NRF2-target proteins NQO1 and GCLM in wild type mouse cortical neurons (6 DIV) treated with MIND4 and MIND4-17 for 24 hr was consistent with the compound effects on ARE-dependent gene transcription (FIG. 24E).

[2] = system: primary neurons from HD140CAG mice; experiment: ROS detection assay in primary neurons; type: cell-based, mouse; details: 0.1 μM and 0.25 μM, 4 days
Protocol: Elevated levels of reactive oxygen species (ROS) have been implicated in normal brain aging and in the pathogenesis of numerous neurodegenerative diseases, including HD. The neuroprotective properties of NRF2 activation have been reported to boost antioxidant defenses in astrocytes, but in this study it was determined whether NRF2 induction mediates protective antioxidant activity in mutant Htt expressing primary neurons. It was determined whether NRF2 activation could reduce mHtt associated ROS in primary neurons isolated from embryonic brains (E15-E17) of HD140CAG mice, which display strikingly elevated ROS levels compared to cells derived from wild type mice. HD and wild type neurons were treated with MIND4-17 at 0.1 μM and 0.25 μM doses for 4 days, and ROS were measured.
ROS detection in primary neurons was performed as previously described by [Valencia, 2013]. Briefly, neurons were plated on glass coverslips pretreated with poly-L-lysine for 24 hours. At 4 DIV wild type and HDQ140 neurons were treated with compound MIND4-17 at 4 DIV, then ROS were measured in live cells at 8 DIV. Prior to ROS measurements, neurons were loaded with […] of the non-fluorescent ROS-detector carboxy-DCFDA-AM (Invitrogen) for 15 min at 37° C. […] Images were acquired through a 60× oil immersion Nikon Apo objective DIC H (NA 1/4 1.4) and quantified using ImageJ software (NIH).

[3] = system: α-tubulin K40 and histone H3 acetylation; experiment: Acetylation of SIRT2 substrates in wild type primary cortical neurons; type: cell-based, mouse
Protocol: as §1
Based upon the robust neuroprotection observed in HD model systems expressing both mutant HTT fragments and full-length mutant HTT, verification of the bioactivity of MIND4 as SIRT2 inhibitor in primary neurons was sought. […]

Row | Compound | Expression of NQO1 protein [1] | GCLM expression [1] | Basal ROS levels in wild type neurons [2] | ROS levels in HD neurons [2] | Acetylation of histone 3 K56 and K27 ([3]; primary neurons, 6 hr) | Acetylation of α-tubulin and Histone 3 K56 ([3]; wild type primary cortical neurons (DIV11), 6 hours)
1 | O=[N+]([O-])c1ccc(Sc2nnc(COc3ccccc3)n2-c2ccccc2)nc1 [MIND4-17] | increased the expression of NQO1 protein to the same extent | more potent inducer of GCLM expression | No effects on basal ROS levels were detected | significant reduction of ROS | – | –
2 | O=[N+]([O-])c1ccc(Sc2nnc(COc3ccccc3)n2-c2ccccc2)c2ncccc12 [MIND4, 5-nitro-8-{[5-(phenoxymethyl)-4-phenyl-4H-1,2,4-triazol-3-yl]thio}quinoline] | increased the expression of NQO1 protein to the same extent | – | – | – | increased acetylation of histone 3 K56 and K27 | only subtle increases of acetylation
